Measured values reported in US20250127801A1, “BRIDGED TRICYCLIC CARBAMOYLPYRIDONE COMPOUNDS AND USES THEREOF” (priority 2023, published 2025).
pEC50: −log10 of the molar value. Converted amounts (≈) assume the structure as drawn. Where two headings read alike, the source gives them in different places.

Assays:
HIV-1 (IIIB) = assay: microbe, parasite or virus in culture; format: cell-based; conditions: for EC50: Human immunodeficiency virus 1, IIIB, MT4, 120 h, read-out: MT4 EC50 (nM)
in vitro = conditions: human
physchem = conditions: 23 °C, thermodynamic from solid; for solubility thermodynamic: fassif

CC1=NO[C@@]2(CC[C@H](C)N3C[C@H]2n2cc(C(=O)NCc4ccc(F)cc4F)c(=O)c(OCOC(=O)N4CCOC[C@H]4COP(=O)(O)O)c2C3=O)C1 [Compound 64, (((3′S,5S,7′R)-10′-((2,4-difluorobenzyl)carbamoyl)-3,3′-dimethyl-1′,11′-dioxo-1′,4′,5′,11′-tetrahydro-3′H,4H,7′H-spiro[isoxazole-5,6′-[2,7]methanopyrido[1,2-a][1,4]diazonin]-12′-yl)oxy)methyl (3S)-3-((phosphonooxy)methyl)morpholine-4-carboxylate]
pEC50 (HIV-1 (IIIB); Human immunodeficiency virus 1, MT4, 120 h, HIV-1 (IIIB) replication in MT-4 cells, 5 days incubation, Cell Titer Glo, read-out: MT4 EC50): 7.67 | CC50 at 5 days (in vitro; uninfected MT-4 cells): ≥ 50000 nM | solubility thermodynamic at 24 h (physchem; FaSSIF): 4840 µg/mL (≈ 6.54 mM)

CC1=NO[C@@]2(CC[C@H](C)N3C[C@H]2n2cc(C(=O)NCc4ccc(F)cc4F)c(=O)c(OC(=O)N(C)c4ncc(C(=O)N[C@@H](CC(=O)O)C(=O)O)cc4COP(=O)(O)O)c2C3=O)C1 [Compound 84, (6-(((((3′S,5S,7′R)-10′-((2,4-difluorobenzyl)carbamoyl)-3,3′-dimethyl-1′,11′-dioxo-1′,4′,5′,11′-tetrahydro-3′H,4H,7′H-spiro[isoxazole-5,6′-[2,7]methanopyrido[1,2-a][1,4]diazonin]-12′-yl)oxy)carbonyl)(methyl)amino)-5-((phosphonooxy)methyl)nicotinoyl)-L-aspartic acid]
EC50 (HIV-1 (IIIB)): 38 nM | CC50 (in vitro): ≥ 50000 nM | solubility thermodynamic (physchem): 5580 µg/mL (≈ 6.27 mM)

CC1=NO[C@@]2(CC[C@H](C)N3C[C@H]2n2cc(C(=O)NCc4ccc(F)cc4F)c(=O)c(OCOC(=O)N(C)c4ncccc4CN(C)C(=O)OCOP(=O)(O)O)c2C3=O)C1 [Compound 62, (phosphonooxy)methyl ((2-((((((3′S,5S,7′R)-10′-((2,4-difluorobenzyl)carbamoyl)-3,3′-dimethyl-1′,11′-dioxo-1′,4′,5′,11′-tetrahydro-3′H,4H,7′H-spiro[isoxazole-5,6′-[2,7]methanopyrido[1,2-a][1,4]diazonin]-12′-yl)oxy)methoxy)carbonyl)(methyl)amino)pyridin-3-yl)methyl)(methyl)carbamate]
EC50 (HIV-1 (IIIB)): 1.73 nM | CC50 (in vitro): 14600 nM | solubility thermodynamic (physchem): 5030 µg/mL (≈ 5.93 mM)

CC1=NO[C@@]2(CC[C@H](C)N3C[C@H]2n2cc(C(=O)NCc4ccc(F)cc4F)c(=O)c(OCc4ccc(OP(=O)(O)O)cn4)c2C3=O)C1 [Compound 71, 6-((((3′S,5S,7′R)-10′-((2,4-difluorobenzyl)carbamoyl)-3,3′-dimethyl-1′,11′-dioxo-1′,4′,5′,11′-tetrahydro-3′H,4H,7′H-spiro[isoxazole-5,6′-[2,7]methanopyrido[1,2-a][1,4]diazonin]-12′-yl)oxy)methyl)pyridin-3-yl dihydrogen phosphate]
EC50 (HIV-1 (IIIB)): 1.02 nM | CC50 (in vitro): 9300 nM | solubility thermodynamic (physchem): 3470 µg/mL

CC1=NO[C@@]2(CC[C@H](C)N3C[C@H]2n2cc(C(=O)NCc4ccc(F)cc4F)c(=O)c(OC(=O)N(C)c4ncc(C(=O)O)cc4COP(=O)(O)O)c2C3=O)C1 [Compound 4, 6-(((((3′S,5S,7′R)-10′-((2,4-difluorobenzyl)carbamoyl)-3,3′-dimethyl-1′,11′-dioxo-1′,4′,5′,11′-tetrahydro-3′H,4H,7′H-spiro[isoxazole-5,6′-[2,7]methanopyrido[1,2-a][1,4]diazonin]-12′-yl)oxy)carbonyl)(methyl)amino)-5-((phosphonooxy)methyl)nicotinic acid]
EC50 (HIV-1 (IIIB)): 14.8 nM | CC50 (in vitro): ≥ 50000 nM | solubility thermodynamic (physchem): 4800 µg/mL (≈ 6.2 mM)

CC1=NO[C@@]2(CC[C@H](C)N3C[C@H]2n2cc(C(=O)NCc4ccc(F)cc4F)c(=O)c(OCOC(=O)OCCC(C)(C)c4c(CC(=O)O)cc(C)cc4OP(=O)(O)O)c2C3=O)C1 [Compound 23, 2-(2-(4-((((((3′S,5S,7′R)-10′-((2,4-difluorobenzyl)carbamoyl)-3,3′-dimethyl-1′,11′-dioxo-1′,4′,5′,11′-tetrahydro-3′H,4H,7′H-spiro[isoxazole-5,6′-[2,7]methanopyrido[1,2-a][1,4]diazonin]-12′-yl)oxy)methoxy)carbonyl)oxy)-2-methylbutan-2-yl)-5-methyl-3-(phosphonooxy)phenyl)acetic acid]
EC50 (HIV-1 (IIIB)): 2.11 nM | CC50 (in vitro): 14600 nM | solubility thermodynamic (physchem): 4750 µg/mL (≈ 5.43 mM)
